Measured values as given in US12466849B2, “Anti-viral and anti-tumoral compounds” (YEDA RESEARCH AND DEVELOPMENT CO. LTD, priority 2020, dated 2025).
Like-named read-outs stand apart in the source and are kept apart here.

Columns and labels:
HCMV AD169 = assay: HCMV plaque reduction assay, MRC-5 cells, strain AD169; assay type: cell-based, Human cytomegalovirus
HFF cells = assay: Cell proliferation assay, human foreskin fibroblast (HFF) cells; assay type: cell-based; conditions: Homo sapiens, 72 h, cell number
[1] = test system: BK virus (BKV), Gardner strain
JC virus (JCV) [2] = test system: JC virus (JCV)
[3] = human
[4] = rat; for Peak area ratio, parent: 1 µM
in vivo = conditions: male, Sprague-Dawley, rat; for AUC(0-inf): AUCInf; for AUC(0-t): AUClast
in vitro [5] = conditions: human
in vitro [6] = conditions: African green monkey
in vitro [7] = conditions: human; remark: listed apart in the source
in vitro [8] = conditions: rat
in vitro [9] = conditions: both, human, plasma
in vitro [10] = conditions: male, SD, rat, plasma
in vitro [11] = conditions: human; remark: listed apart in the source
[12] = test system: BK virus (BKV), Gardner strain; assay: microbe, parasite or virus in culture; conditions: Betapolyomavirus hominis, HFF
JC virus (JCV) [13] = assay: microbe, parasite or virus in culture; conditions: JC polyomavirus, COS-7
[14] = Secondary JCV assay (qPCR), COS7 cells; conditions: African green monkey
JC virus (JCV) [15] = assay: Secondary JCV assay (qPCR), COS7 cells
[16] = MRC-5 cytotoxicity assay (MTS) and visual cytotoxicity; conditions: human
[17] = Rat plasma pharmacokinetics after IV infusion and PO dose; conditions: rats; 10 mg/kg IV 2-h infusion and PO

For CCCCCCCCCCCCCCCCOCCCOP(=O)(O)OCC1=C[C@H](O)[C@H](n2cnc3c(=O)[nH]c(N)nc32)O1 [AB23040], the EC50 (HCMV AD169; Human betaherpesvirus 5, 144 h, hCMV AD169, MRC5 cells, plaque assay, 6-days duration) was 22.1 µM, the “antiviral activity against hCMV (in words)” value (HCMV AD169; MRC5 cells, AD169 strain) was “impressive antiviral activity” and the “Selectivity Index (CC50/EC50)” value (HCMV AD169; hCMV AD169, MRC5 cells) was >4.52. The IC50 (HFF cells) was 65.9 µM, the Activity [1] was “LO (key: NA (Not Active) SI50 = 0-3.9; LO (Slightly Active) SI50 = 4-9.9; MOD (Moderately Active) SI50 = 10-19.9; HI (Highly Active) SI50 = ≥20)” and the “activity against BK virus (in words)” value [1] was “Low activity”. The Activity (JC virus (JCV) [2]) was “LO (key: NA (Not Active) SI50 = 0-3.9; LO (Slightly Active) SI50 = 4-9.9; MOD (Moderately Active) SI50 = 10-19.9; HI (Highly Active) SI50 = ≥20)”, the “activity against JC virus (in words)” value (JC virus (JCV) [2]) was “Low activity” and the CLhep ([3]; 1 μM) was 0.636 L/h/kg. The Eh ([3]; 1 μM) was 24%, the “Peak area ratio, parent” value ([3]; 15 min, 1 μM) was 1.33E−01 and the “Peak area ratio, parent” value ([3]; 60 min, 1 μM) was 1.05E−01. The “hydrolytic stability in hepatic S9 (in words)” value ([3]; s9) was “least stable”, the T1/2 ([3]; s9, 1 μM) was 3.32 h and the CLhep ([4]; 1 μM) was 1.12 L/h/kg. The Eh ([4]; 1 μM) was 21%, the “Peak area ratio, parent” value ([4]; 15 min) was 1.16E−01 and the “Peak area ratio, parent” value ([4]; 60 min) was 1.11E−01. The “hydrolytic stability in hepatic S9 (in words)” value ([4]; s9) was “least stable”, the T1/2 ([4]; s9, 1 μM) was 3.95 h and the concentration at 0.5 h (in vivo; iv, 10 mg/kg) was 2.67 µM. The concentration at 1 h (in vivo; iv, 10 mg/kg) was 3.26 µM, the concentration at 2 h (in vivo; iv, 10 mg/kg) was 4.07 µM and the concentration at 4 h (in vivo; iv, 10 mg/kg) was 0.133 µM. It also gave a concentration at 8 h (in vivo; iv, 10 mg/kg) of 0.013 µM, a concentration at 24 h (in vivo; iv, 10 mg/kg) of 0.005 µM and a concentration at 72 h (in vivo; iv, 10 mg/kg) of 0.004 µM. For the same compound, the AUC(0-inf) (in vivo; iv, 10 mg/kg) was 9.13 µM·h, the AUC(0-t) (in vivo; iv, 10 mg/kg) was 9.12 µM·h and the clearance (in vivo; iv, 10 mg/kg, CL) was 1.7 L/h/kg. For the same compound, the Cmax (in vivo; iv, 10 mg/kg, Cmax) was 3.65 µM, the half-life (in vivo; iv, 10 mg/kg, Terminal t1/2) was 37 h and the half-life (in vivo; iv, 10 mg/kg, t1/2) was 0.8 h. For the same compound, the Tmax (in vivo; iv, 10 mg/kg) was 2 h, the half-life (in vivo; iv, t1/2 in plasma) was < 1 h and the bioavailability (in vivo; po, 10 mg/kg) was 4%. It also gave a concentration at 0.5 h (in vivo; po, 10 mg/kg) of 0.038 µM, a concentration at 1 h (in vivo; po, 10 mg/kg) of 0.058 µM and a concentration at 2 h (in vivo; po, 10 mg/kg) of 0.077 µM. It also gave a concentration at 4 h (in vivo; po, 10 mg/kg) of 0.0304 µM, a concentration at 8 h (in vivo; po, 10 mg/kg) of 0.024 µM and an AUC(0-inf) (in vivo; po, 10 mg/kg) of 0.503 µM·h. The AUC(0-t) (in vivo; po, 10 mg/kg) was 0.387 µM·h, the MRT inf (in vivo; po, 10 mg/kg, MRTInf) was 5.2 h and the Tmax (in vivo; po, 10 mg/kg) was 2 h. For the same compound, the CC50 (in vitro [5]) was 25.1 µM, the CC50 (in vitro [6]) was 80.7 µM and the microsomal CLint at 1 μM (in vitro [7]; s9) was 7 µL/min/mg. For the same compound, the half-life at 1 µM (in vitro [7]; s9, T1/2) was 4.69 h, the half-life at 1 μM (in vitro [7]; s9, T1/2) was 3.31 h and the microsomal CLint at 1 μM (in vitro [8]; s9) was 5.8 µL/min/mg. For the same compound, the half-life at 1 µM (in vitro [8]; s9, T1/2) was 5.72 h, the half-life at 1 μM (in vitro [8]; s9, T1/2) was 3.95 h and the half-life at 0.75 µM (in vitro [9]) was > 9.32 h. The half-life at 0.75 μM (in vitro [9]) was > 9.3 h, the half-life at 0.75 µM (in vitro [10]) was > 9.32 h and the half-life at 0.75 μM (in vitro [10]) was > 9.3 h. For the same compound, the CC50 at 7 d (in vitro [11]) was 112 µM, the EC50 [12] was 4.97 µM and the EC90 [12] was > 6 µM. It also gave an EC50 (JC virus (JCV) [13]) of 8.85 µM, an EC90 (JC virus (JCV) [13]) of 28 µM and a CC50 at 7 days [14] of 31.3 µM. For the same compound, the EC50 (JC virus (JCV) [15]; JC polyomavirus, COS-7, 168 h) was 0.37 µM, the EC90 (JC virus (JCV) [15]; JC polyomavirus, COS-7, 168 h) was 18.6 µM and the Activity (JC virus (JCV) [15]; secondary JCV assay, COS7 cells, class by SI50) was “HI (HI (Highly Active) SI50 = ≥20)”. The “antiviral activity against JCV (in words)” value (JC virus (JCV) [15]; secondary testing, COS7 cells) was “high”, the CC50 at 6 days [16] was > 100 µM and the “tolerability / adverse events (AE)” value [17] was “well-tolerated”.
